Converted amounts (≈) assume the structure as drawn. The source made the active and inactive calls. No cut-off for these calls is given here. Positions of bridges follow the written chain, without caps; N, C: chain ends. Non-standard residues stand in square brackets, D forms with d. Residues, ends and D or L forms follow the SMILES beside them. *: point of attachment. dPhe(3,4,5-F3) = N[C@H](Cc1cc(F)c(F)c(F)c1)C(=O)O; dPhe(4-Cl) = N[C@H](Cc1ccc(Cl)cc1)C(=O)O; Phe(2-F) = N[C@@H](Cc1ccccc1F)C(=O)O; Gly(octyl) = CCCCCCCC[C@H](N)C(=O)O; d(hPhe) = N[C@H](CCc1ccccc1)C(=O)O; hPhe = N[C@@H](CCc1ccccc1)C(=O)O; hLeu = CC(C)CC[C@H](N)C(=O)O; Octanoyl = CCCCCCCC(=O)*; Dab = NCC[C@H](N)C(=O)O
Columns and labels:
[1] = test system: Cell membrane; assay: Induction of membrane destabilization in Escherichia coli MG1655 assessed as SYTOX uptake at 2 times MIC measured every 5 mins for 120 mins by microplate reader assay; assay type: cell membranes
[2] = test system: Escherichia coli; assay: Antimicrobial activity against […] Escherichia coli harboring mcr-1 assessed as bacterial growth inhibition incubated for 20 hrs by broth microdilution method; assay type: functional
[3] = test system: Pseudomonas aeruginosa; assay: Antimicrobial activity against Pseudomonas aeruginosa PAO1 assessed as bacterial growth inhibition incubated for 20 hrs by broth microdilution method; assay type: functional
[4] = test system: Pseudomonas aeruginosa; assay: Antimicrobial activity against colistin resistant Pseudomonas aeruginosa 7197/19 assessed as bacterial growth inhibition incubated for 20 hrs by broth microdilution method; assay type: functional
[5] = test system: Acinetobacter baumannii; assay: Antimicrobial activity against Acinetobacter baumannii ATCC 19606 assessed as bacterial growth inhibition incubated for 20 hrs by broth microdilution method; assay type: functional
[6] = test system: Escherichia coli; assay: Antibacterial activity against Escherichia coli ATCC 25922 assessed as bacterial growth inhibition incubated for 20 hrs by broth microdilution method; assay type: functional
[7] = test system: Klebsiella pneumoniae; assay: Antimicrobial activity against Klebsiella pneumoniae ATCC 13883 assessed as bacterial growth inhibition incubated for 20 hrs by broth microdilution method; assay type: functional
[8] = Hemolytic activity in human RBC at 400 ug/ml after 1 hr; assay type: toxicity, cell-based, Erythrocyte; settings: red blood cells (erythrocytes), at 400 µg/mL, read-out: Activity
[9] = test system: Klebsiella pneumoniae; assay: Antimicrobial activity against colistin resistant Klebsiella pneumoniae clinical isolate 1 assessed as bacterial growth inhibition incubated for 20 hrs by broth microdilution method; assay type: functional
[10] = test system: Klebsiella pneumoniae; assay: Antimicrobial activity against colistin resistant Klebsiella pneumoniae clinical isolate 3 assessed as bacterial growth inhibition incubated for 20 hrs by broth microdilution method; assay type: functional
[11] = test system: Acinetobacter baumannii; assay: Antimicrobial activity against colistin resistant Acinetobacter baumannii ATCC 3658/17 assessed as bacterial growth inhibition incubated for 20 hrs by broth microdilution method; assay type: functional
[12] = test system: Klebsiella pneumoniae; assay: Antimicrobial activity against colistin resistant Klebsiella pneumoniae ATCC 13883 assessed as bacterial growth inhibition incubated for 20 hrs by broth microdilution method; assay type: functional
[13] = test system: Acinetobacter baumannii; assay: Antimicrobial activity against colistin resistant Acinetobacter baumannii clinical isolate 4 assessed as bacterial growth inhibition incubated for 20 hrs by broth microdilution method; assay type: functional
[14] = test system: Escherichia coli; assay: Antibacterial activity against […] Escherichia coli clinical isolate 1 assessed as bacterial growth inhibition incubated for 20 hrs by broth microdilution method; assay type: functional
[15] = test system: Pseudomonas aeruginosa; assay: Antimicrobial activity against colistin resistant Pseudomonas aeruginosa clinical isolate 1 assessed as bacterial growth inhibition incubated for 20 hrs by broth microdilution method; assay type: functional
[16] = test system: Escherichia coli; assay: Antibacterial activity against […] Escherichia coli clinical isolate 3 assessed as bacterial growth inhibition incubated for 20 hrs by broth microdilution method; assay type: functional
[17] = test system: Acinetobacter baumannii; assay: Antimicrobial activity against colistin resistant Acinetobacter baumannii clinical isolate 3 assessed as bacterial growth inhibition incubated for 20 hrs by broth microdilution method; assay type: functional
[18] = test system: Pseudomonas aeruginosa; assay: Antimicrobial activity against Pseudomonas aeruginosa ATCC 27853 assessed as bacterial growth inhibition incubated for 20 hrs by broth microdilution method; assay type: functional
[19] = test system: Escherichia coli; assay: Antibacterial activity against […] Escherichia coli clinical isolate 2 assessed as bacterial growth inhibition incubated for 20 hrs by broth microdilution method; assay type: functional
[20] = test system: Klebsiella pneumoniae; assay: Antimicrobial activity against colistin resistant Klebsiella pneumoniae clinical isolate 2 assessed as bacterial growth inhibition incubated for 20 hrs by broth microdilution method; assay type: functional
[21] = test system: Klebsiella pneumoniae; assay: Antimicrobial activity against colistin resistant Klebsiella pneumoniae clinical isolate 4 assessed as bacterial growth inhibition incubated for 20 hrs by broth microdilution method; assay type: functional
[22] = test system: Escherichia coli; assay: Antibacterial activity against […] Escherichia coli ATCC 25922 assessed as bacterial growth inhibition incubated for 20 hrs by broth microdilution method; assay type: functional
[23] = test system: Acinetobacter baumannii; assay: Antimicrobial activity against colistin resistant Acinetobacter baumannii clinical isolate 1 assessed as bacterial growth inhibition incubated for 20 hrs by broth microdilution method; assay type: functional

Compound	MIC [2]	MIC [3]	MIC [4]	MIC [5]	MIC [6]	MIC [7]	also measured
CCCCCCCC(=O)N[C@@H](CCN)C(=O)N[C@H](C(=O)N[C@@H](CCN)C(=O)N[C@H]1CCNC(=O)[C@H]([C@@H](C)O)NC(=O)[C@H](CCN)NC(=O)[C@H](CCN)NC(=O)C(CCCCCC)NC(=O)[C@@H](Cc2ccccc2)NC(=O)[C@@H](CCN)NC1=O)[C@H](C)O (some centres not stated)							Activity [1]: Active
CCCCCCCC(=O)N[C@@H](CCN)C(=O)N[C@H](C(=O)N[C@@H](CCN)C(=O)N[C@H]1CCNC(=O)[C@H]([C@@H](C)O)NC(=O)[C@H](CCN)NC(=O)[C@H](CCN)NC(=O)[C@H](CC(C)C)NC(=O)[C@@H](Cc2cc(F)c(F)c(F)c2)NC(=O)[C@H](CCN)NC1=O)[C@@H](C)O (Octanoyl-[Dab]T[Dab][Dab][Dab][dPhe(3,4,5-F3)]L[Dab][Dab]T; lactam 4-C)	1 µg/mL (≈ 0.804 µM)	< 0.125 µg/mL	0.25 µg/mL (≈ 0.201 µM)	< 0.125 µg/mL	< 0.125 µg/mL	< 0.125 µg/mL	
CC(=O)N[C@H](Cc1ccc(C(F)(F)F)cc1)C(=O)N[C@@H](CCN)C(=O)N[C@H](C(=O)N[C@@H](CCN)C(=O)N[C@H]1CCNC(=O)[C@H]([C@@H](C)O)NC(=O)[C@H](CCN)NC(=O)[C@H](CCN)NC(=O)[C@H](CC(C)C)NC(=O)[C@@H](Cc2ccccc2)NC(=O)[C@@H](CCN)NC1=O)[C@H](C)O	4 µg/mL (≈ 3.03 µM)	0.25 µg/mL (≈ 0.189 µM)	32 µg/mL (≈ 24.2 µM)	0.5 µg/mL (≈ 0.379 µM)		8 µg/mL (≈ 6.06 µM)	hemolysis at 1 h, 400 ug/ml [8]: < 10%
CCCCCCCC(=O)N[C@@H](CCN)C(=O)N[C@H](C(=O)N[C@@H](CCN)C(=O)N[C@H]1CCNC(=O)[C@H]([C@@H](C)O)NC(=O)[C@H](CCN)NC(=O)[C@H](CCN)NC(=O)[C@H](CC(C)C)NC(=O)[C@@H](Cc2ccc(Cl)cc2)NC(=O)[C@H](CCN)NC1=O)[C@@H](C)O (Octanoyl-[Dab]T[Dab][Dab][Dab][dPhe(4-Cl)]L[Dab][Dab]T; lactam 4-C)		0.25 µg/mL (≈ 0.204 µM)	0.25 µg/mL (≈ 0.204 µM)			< 0.125 µg/mL	MIC [9]: 16 µg/mL (≈ 13.1 µM); MIC [10]: 16 µg/mL (≈ 13.1 µM); MIC [11]: 0.25 µg/mL (≈ 0.204 µM); MIC [12]: 16 µg/mL (≈ 13.1 µM); MIC [13]: 16 µg/mL (≈ 13.1 µM); MIC [14]: 2 µg/mL (≈ 1.63 µM); MIC [15]: 4 µg/mL (≈ 3.27 µM)
CCCCCCCC(=O)N[C@@H](CCN)C(=O)N[C@H](C(=O)N[C@@H](CCN)C(=O)N[C@H]1CCNC(=O)[C@H]([C@@H](C)O)NC(=O)[C@H](CCN)NC(=O)[C@H](CCN)NC(=O)[C@H](Cc2ccccc2)NC(=O)[C@@H](CCc2ccccc2)NC(=O)[C@H](CCN)NC1=O)[C@@H](C)O (Octanoyl-[Dab]T[Dab][Dab][Dab][d(hPhe)]F[Dab][Dab]T; lactam 4-C)	2 µg/mL (≈ 1.62 µM)	0.25 µg/mL (≈ 0.202 µM)	0.25 µg/mL (≈ 0.202 µM)	0.125 µg/mL (≈ 0.101 µM)	0.5 µg/mL (≈ 0.404 µM)	2 µg/mL (≈ 1.62 µM)	MIC [11]: 1 µg/mL (≈ 0.808 µM)
CCCCCCCC(=O)N[C@@H](CCN)C(=O)N[C@H](C(=O)N[C@@H](CCN)C(=O)N[C@H]1CCNC(=O)[C@H]([C@@H](C)O)NC(=O)[C@H](CCN)NC(=O)[C@H](CCN)NC(=O)[C@H](CCc2ccccc2)NC(=O)[C@@H](CC(C)C)NC(=O)[C@H](CCN)NC1=O)[C@@H](C)O (Octanoyl-[Dab]T[Dab][Dab][Dab][dL][hPhe][Dab][Dab]T; lactam 4-C)	1 µg/mL (≈ 0.831 µM)	0.25 µg/mL (≈ 0.208 µM)	1 µg/mL (≈ 0.831 µM)		0.125 µg/mL (≈ 0.104 µM)		MIC [16]: 0.5 µg/mL (≈ 0.415 µM); MIC [9]: 4 µg/mL (≈ 3.32 µM); MIC [10]: 4 µg/mL (≈ 3.32 µM); MIC [17]: 1 µg/mL (≈ 0.831 µM); MIC [18]: 0.25 µg/mL (≈ 0.208 µM); MIC [19]: 1 µg/mL (≈ 0.831 µM); MIC [20]: 4 µg/mL (≈ 3.32 µM); MIC [21]: 4 µg/mL (≈ 3.32 µM); MIC [14]: 1 µg/mL (≈ 0.831 µM)
CCCCCCCC(=O)N[C@@H](CCN)C(=O)N[C@H](C(=O)N[C@@H](CCN)C(=O)N[C@H]1CCNC(=O)[C@H]([C@@H](C)O)NC(=O)[C@H](CCN)NC(=O)[C@H](CCN)NC(=O)[C@H](CCC(C)C)NC(=O)[C@@H](Cc2ccccc2)NC(=O)[C@H](CCN)NC1=O)[C@@H](C)O (Octanoyl-[Dab]T[Dab][Dab][Dab][dF][hLeu][Dab][Dab]T; lactam 4-C)	1 µg/mL (≈ 0.831 µM)	< 0.125 µg/mL	0.5 µg/mL (≈ 0.415 µM)		< 0.125 µg/mL	0.25 µg/mL (≈ 0.208 µM)	MIC [9]: 16 µg/mL (≈ 13.3 µM); MIC [17]: 0.5 µg/mL (≈ 0.415 µM); MIC [18]: 0.25 µg/mL (≈ 0.208 µM); MIC [22]: 0.125 µg/mL (≈ 0.104 µM); MIC [19]: 0.5 µg/mL (≈ 0.415 µM); MIC [20]: 8 µg/mL (≈ 6.65 µM); MIC [13]: 2 µg/mL (≈ 1.66 µM); MIC [23]: 4 µg/mL (≈ 3.32 µM)
CCCCCCCC(=O)N[C@@H](CCN)C(=O)N[C@H](C(=O)N[C@@H](CCN)C(=O)N[C@H]1CCNC(=O)[C@H]([C@@H](C)O)NC(=O)[C@H](CCN)NC(=O)[C@H](CCN)NC(=O)[C@H](CC(C)C)NC(=O)[C@@H](Cc2ccc(Br)cc2)NC(=O)[C@@H](CCN)NC1=O)[C@H](C)O							Activity [1]: Active
CCCCCCCC(=O)N[C@@H](CCN)C(=O)N[C@H](C(=O)N[C@@H](CCN)C(=O)N[C@H]1CCNC(=O)[C@H]([C@@H](C)O)NC(=O)[C@H](CCN)NC(=O)[C@H](CCN)NC(=O)C(CCCc2ccccc2)NC(=O)[C@@H](Cc2ccccc2)NC(=O)[C@@H](CCN)NC1=O)[C@H](C)O (some centres not stated)							Activity [1]: Active
CC(=O)N[C@H](Cc1c(F)c(F)c(F)c(F)c1F)C(=O)N[C@@H](CCN)C(=O)N[C@H](C(=O)N[C@@H](CCN)C(=O)N[C@H]1CCNC(=O)[C@H]([C@@H](C)O)NC(=O)[C@H](CCN)NC(=O)[C@H](CCN)NC(=O)[C@H](CC(C)C)NC(=O)[C@@H](Cc2ccccc2)NC(=O)[C@@H](CCN)NC1=O)[C@H](C)O	8 µg/mL (≈ 5.96 µM)	0.25 µg/mL (≈ 0.186 µM)			< 0.125 µg/mL	8 µg/mL (≈ 5.96 µM)	hemolysis at 1 h, 400 ug/ml [8]: < 10%
CCCCCCCC[C@@H]1NC(=O)[C@@H](Cc2ccccc2)NC(=O)[C@H](CCN)NC(=O)[C@@H](NC(=O)[C@H](CCN)NC(=O)[C@@H](NC(=O)[C@H](CCN)NC(=O)CCCCCCC)[C@@H](C)O)CCNC(=O)[C@H]([C@@H](C)O)NC(=O)[C@H](CCN)NC(=O)[C@H](CCN)NC1=O (Octanoyl-[Dab]T[Dab][Dab][Dab][dF][Gly(octyl)][Dab][Dab]T; lactam 4-C)		0.5 µg/mL (≈ 0.401 µM)	0.25 µg/mL (≈ 0.201 µM)	0.25 µg/mL (≈ 0.201 µM)	0.5 µg/mL (≈ 0.401 µM)	0.25 µg/mL (≈ 0.201 µM)	MIC [16]: 4 µg/mL (≈ 3.21 µM); MIC [10]: 16 µg/mL (≈ 12.8 µM); MIC [17]: 0.25 µg/mL (≈ 0.201 µM); MIC [22]: 0.5 µg/mL (≈ 0.401 µM); MIC [19]: 4 µg/mL (≈ 3.21 µM); MIC [20]: 16 µg/mL (≈ 12.8 µM); MIC [21]: 16 µg/mL (≈ 12.8 µM); MIC [12]: 16 µg/mL (≈ 12.8 µM); MIC [23]: 4 µg/mL (≈ 3.21 µM); MIC [14]: 4 µg/mL (≈ 3.21 µM)
CCCCCCCC(=O)N[C@@H](CCN)C(=O)N[C@H](C(=O)N[C@@H](CCN)C(=O)N[C@H]1CCNC(=O)[C@H]([C@@H](C)O)NC(=O)[C@H](CCN)NC(=O)[C@H](CCN)NC(=O)[C@H](Cc2ccccc2F)NC(=O)[C@@H](CC(C)C)NC(=O)[C@H](CCN)NC1=O)[C@@H](C)O (Octanoyl-[Dab]T[Dab][Dab][Dab][dL][Phe(2-F)][Dab][Dab]T; lactam 4-C)	2 µg/mL (≈ 1.66 µM)			0.125 µg/mL (≈ 0.104 µM)	0.06 µg/mL (≈ 0.0497 µM)	4 µg/mL (≈ 3.31 µM)	
